Paper PMC4890535, “On the Kinetic and Allosteric Regulatory Properties of the ADP-Glucose Pyrophosphorylase from Rhodococcus jostii: An Approach to Evaluate Glycogen Metabolism in Oleaginous Bacteria” (Frontiers in Microbiology, 2016)
Read-outs that look alike come from different tables or passages of the source.

Legend:
[1] = target: T1, R. jostii ADP-Glc PPase (RjoGlgC) (Rhodococcus jostii, UniProt Q0S3Y4); test: colorimetric Pi release (Malachite Green) assay of ADP-Glc synthesis, Hill fit; assay type: biochemical
T1 construct: gene glgC; full length, N-terminal His-tag (pET28c), E. coli BL21(DE3) with GroEL/GroES; start GTG changed to ATG, primer encodes MRSQPHV; homotetramer 190 kDa
T1 sequence (Q0S3Y4 1-404): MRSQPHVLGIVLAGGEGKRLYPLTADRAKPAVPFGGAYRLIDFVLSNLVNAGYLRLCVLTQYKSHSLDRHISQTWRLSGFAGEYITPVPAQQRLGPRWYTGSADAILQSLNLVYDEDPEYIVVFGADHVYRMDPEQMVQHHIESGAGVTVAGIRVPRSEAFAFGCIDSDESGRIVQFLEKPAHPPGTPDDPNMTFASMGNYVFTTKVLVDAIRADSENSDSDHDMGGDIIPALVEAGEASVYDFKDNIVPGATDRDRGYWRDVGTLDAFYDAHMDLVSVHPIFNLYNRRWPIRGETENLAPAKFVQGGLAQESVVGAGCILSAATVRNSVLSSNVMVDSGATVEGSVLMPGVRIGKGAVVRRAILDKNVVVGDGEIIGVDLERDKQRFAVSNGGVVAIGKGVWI
Description: colorimetric Pi release (Malachite Green) assay of ADP-Glc synthesis, Hill fit on R. jostii ADP-Glc PPase (RjoGlgC)

[2] = target: T1, R. jostii ADP-Glc PPase (RjoGlgC); test: as above; assay type: biochemical; conditions: no activator; co-substrate ATP; 5 mM MgCl2, pH 8.0, 37°C; read-out: S0.5
[3] = substrate: Nc1ncnc2c1ncn2[C@@H]1O[C@H](COP(=O)(O)OP(=O)(O)OP(=O)(O)O)[C@@H](O)[C@H]1O; test: as above; assay type: biochemical, Rhodococcus jostii; conditions: no activator, co-substrate Glc-1P saturating, 5 mM MgCl2, pH 8.0, 37°C
[4] = substrate: O=P(O)(O)O[C@H]1O[C@H](CO)[C@@H](O)[C@H](O)[C@H]1O; test: as above; assay type: biochemical, Rhodococcus jostii; conditions: no activator, co-substrate ATP saturating, 5 mM MgCl2, pH 8.0, 37°C
[5] = target: the molecule itself; test: SEC; Superdex 200 size exclusion chromatography of the purified enzyme; data not shown
[6] = allosteric activator; 5 mM MgCl2, ATP and Glc-1P, pH 8.0, 37°C; read-out: A0.5

Question: How did the EC50 [1, 6] turn out when O=P(O)(O)OC[C@H]1OC(O)(CO)[C@@H](O)[C@@H]1O (stereo partly drawn) [Fru-6P] was run?
Answer: 2200 ± 100 µM

Question: Which EC50 ([1]; read-out: A0.5; allosteric activator; 5 mM MgCl2, ATP and Glc-1P, pH 8.0, 37°C) does the source give for O=P(O)(O)OC[C@H]1OC(O)[C@H](O)[C@@H](O)[C@@H]1O (stereo partly drawn) [Glc-6P] here?
Answer: 88 ± 5 µM

Question: For N[C@H]1[C@@H](OP(=O)(O)O)O[C@H](CO)[C@@H](O)[C@@H]1O [GlcN-1P], which Km [2] is on record?
Answer: > 6 mM

Question: How did the EC50 [1, 6] turn out when O=P(O)(O)OC[C@H]1OC(O)[C@@H](O)[C@@H](O)[C@@H]1O (stereo partly drawn) [Man-6P] was run?
Answer: 56 ± 5 µM

Question: With C=C(OP(=O)(O)O)C(=O)O [PEP] as the molecule, how does the EC50 ([1]; read-out: A0.5) read?
Answer: 300 ± 200 µM

Question: With O=P(O)(O)OC[C@H]1OC(O)[C@H](O)[C@@H]1O (stereo partly drawn) [Rib-5P] as the molecule, how does the EC50 [1, 6] read?
Answer: 4000 ± 500 µM

B1: ADP-glucose pyrophosphorylase from Rhodococcus jostii RHA1 (enzyme, UniProt Q0S3Y4 1-404, looked up)
chain: T1 sequence (Q0S3Y4 1-404)
notes: ADP-glucose pyrophosphorylase (EC 2.7.7.27), product of glgC of Rhodococcus jostii RHA1; gene of 1,215 bp, theoretical molecular mass 43.85 kDa; amplified with primers from the initiation codon (changed from GTG to ATG) to downstream of the stop codon; Homotetramer by size exclusion chromatography; also called R. jostii ADP-Glc PPase; ADP-Glc PPase; source: E. coli BL21 (DE3) harboring pGro7 …
Question: What does the source list for B1?
Answer: K0.5 [3]: 1.2 ± 0.1 mM; K0.5 [4]: 1.8 ± 0.2 mM; stoichiometry N [5]: 4
